Experimental data published in patent US11759412B2, “Personal care compositions with glutathione precursor comprising 4-substituted resorcinols and amino acids” (Conopco, Inc., priority 2016, dated 2023).

Legend:
Assay type in all cases: cell-based
[1] = test system: Human Keratinocytes; experiment: Cell Viability Assay (CCK-8, menadione); details: for % Protection (improvement vs vehicle control + menadione), cell viability / Cell viability (% of control): Table 2D; for Cell viability (% of vehicle of control): Table 2H
Method: Human Keratinocytes (Promocell, Heidelberg, Germany) were maintained in EpiLife® keratinocyte medium containing 60 uM calcium chloride and 1% Human Keratinocyte Growth Supplement (HKGS). The medium was refreshed every other day. Subsequently, cells were trypsinized at 90% confluency and seeded at a density of 2×10^4 per well into 96-well transparent tissue culture plates. On the second day after seeding, cell medium was replaced with treatments as described above in ROS assay section. After 18 hours, […] (CCK-8) reagent (Dojindo, Kumamoto, Japan) was diluted 1:10 in HBSS and incubated with cells for 4 h at 37° C. in a humidified incubator. Optical absorption at 450 nm was measured using a Tecan Safire2 plate reader. Relative viability was calculated with normalization based on the vehicle control treatment, which was set to 100%.
Where indicated, percent protection was calculated as a comparison to menadione alone treatment, using the measured relative absorbance units in the following equation: […]

[2] = target: T1, tyrosinase in Human primary melanocytes (Homo sapiens, UniProt P14679); experiment: Tyrosinase Activity Assay (in situ, melanocyte lysate, DOPA/MBTH); details: Table 4, GAP where present: glutamine 32 uM, cystine 40 uM, glycine 129 uM, 72 hours
T1 construct: host or cells: Human primary melanocytes
T1 sequence (P14679 19-529): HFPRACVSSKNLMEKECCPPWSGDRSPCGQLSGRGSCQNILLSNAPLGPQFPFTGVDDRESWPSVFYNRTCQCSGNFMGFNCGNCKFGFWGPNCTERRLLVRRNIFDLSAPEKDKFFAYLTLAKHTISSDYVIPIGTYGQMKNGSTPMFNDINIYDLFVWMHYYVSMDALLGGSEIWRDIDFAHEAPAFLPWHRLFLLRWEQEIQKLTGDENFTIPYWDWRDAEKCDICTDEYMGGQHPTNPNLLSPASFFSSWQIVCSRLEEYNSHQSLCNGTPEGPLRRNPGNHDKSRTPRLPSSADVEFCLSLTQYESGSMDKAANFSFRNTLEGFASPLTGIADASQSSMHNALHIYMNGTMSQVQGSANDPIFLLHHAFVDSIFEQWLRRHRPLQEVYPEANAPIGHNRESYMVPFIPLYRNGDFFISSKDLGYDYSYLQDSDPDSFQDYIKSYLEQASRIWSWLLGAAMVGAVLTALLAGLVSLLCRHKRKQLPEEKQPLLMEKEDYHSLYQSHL
Method: Human primary melanocytes (Cascade Biologics, now ThermoFisher Scientific) were grown in melanocytes growth medium (MGM) with human melanocyte growth supplement (both media components from ThermoFisher Scientific). Melanocytes were seeded at 1×10^4 cells/well in a 96 wells plate and cultures left undisturbed for 24 hrs in a 5% CO2 humidified incubator at 37° C. At 24 hrs post-seeding, cells were treated with GAP amino acids (consisting of glutamine (32 uM), cystine (40 uM), glycine (129 uM)) alone or in combination with test reagents described above, and left undisturbed for another 72 hours. Subsequently, cell viability was assessed and the cells were then lysed and progressed for determination of in situ tyrosinase activity. Cultures were rinsed twice with 1× phosphate-buffered saline and lysed with 40 uL of 0.5% TritonX 100 for 1 hour on an ice bed. In situ tyrosinase activity was visualized by addition of 60 μl of 50 mM potassium phosphate buffer (pH 6.8) containing 2 mM DOPA (3,4 dihydroxy phenylalanine) and 4 mM MBTH reagent (3-Methyl-2-Benzothiazolinone hydrazone hydrochloride) for 1 hour at 37° C. The reaction was stopped by the addition of 100 uL of ice-cold 10% tricholoracetic acid and then centrifuged at approximately 300 g for 10 minutes at 4° C. The soluble supernatant was separated from the pellet and the optical density read in a TECAN plate-reader (540 nm filter). The spectrophotometric optical density at 540 nm for untreated cells (no active) is considered as 100% tyrosinase activity. Tyrosinase activity is expressed after correction for cell numbers (activity/viability) and represented as % control.

[3] = test system: Aged Human Keratinocytes; experiment: Glutathione Assay (total glutathione, GSH-GSSG Glo, menadione challenge); details: for synergistic increase in GSH synthesis, combination with GAP amino acids vs either alone: resorcinol/test reagent combined with GAP, + menadione
Method: Aged Human Keratinocytes (Cascade Biologics, now ThermoFisher Scientific, Waltham, Mass.) were maintained in Epi Life® medium containing 60 uM calcium chloride and 1% Human Keratinocyte Growth Supplement (both media components from ThermoFisher Scientific) in a humidified incubator with an atmosphere containing 5% CO2 at 37° C. The medium was refreshed every 2-3 days. Subsequently, cells were trypsinized at 90% confluency and seeded at a density of 1×10^4 per well into 96-well plates with white wall and clear bottom. One or two days after seeding, cell medium was replaced with Hank's Balanced Salt Solution (HBSS), and keratinocytes were pre-treated with GAP (or 0.12-0.240 mM sodium hydroxide vehicle control, pH 7.5) alone or in combination with additional test reagents described above or L-cystine esters alone for 1-2 hours. The concentration of all amino acids constituting the GAP mixture used in this assay are designated in the data tables, and fully described in the abbreviations list below.
After one or two hours of pre-treatment with GAP or additional test reagents, alone or in combination, keratinocytes were then challenged with 25 uM menadione (Sigma-Aldrich), a known inducer of oxidative stress. After 18-20 hours, cells were harvested and analyzed for total glutathione levels using a commercially available kit (GSH-GSSG GLo Assay, Promega), a luminescence-based system for the detection and quantification of total glutathione in cultured cells. In summary, after cell treatment, the media was removed and replaced with a cell lysis reagent for 5 minutes at 20-25° C.; note, all remaining steps were also conducted at 20-25° C. Next, a luciferase generation reagent was added to each well and incubated for 30 minutes. Following this step, a luciferin detection reagent was added to each well and plates were incubated for 15 minutes. Finally, plates were then read for luminescence in a FlexStation 3 plate reader (Molecular Devices). Total glutathione levels were calculated after interpolation of glutathione concentrations from a standard curve. Experimental conditions were typically conducted in at least triplicate determinations. Statistical significance was calculated using 1-way ANOVA. Percent protection was calculated by using the calculated glutathione levels from each experiment in the following equation: […]

[4] = test system: Human Keratinocytes; experiment: Reactive Oxygen Species (ROS) Assay (CellROX green, menadione); details: for synergistic decrease in ROS production, combination with GAP amino acids vs either alone: resorcinol/test reagent combined with GAP, + menadione
Method: Human Keratinocytes (Promocell, Heidelberg, Germany) were maintained in EpiLife® keratinocyte medium containing 60 uM calcium chloride and 1% Human Keratinocyte Growth Supplement (HKGS) in a humidified incubator with an atmosphere containing 5% CO2 at 37° C. The medium was refreshed every other day. Subsequently, cells were trypsinized at 90% confluency and seeded at a density of 1-2×10^4 per well into 96-well plates with black wall and clear bottom. On the second day after seeding, cell medium was replaced with Hank's Balanced Salt Solution (HBSS) with or without menadione (10-25 uM), GAP (typically at 49 uM pyroglutamic acid, 60 uM cystine, 194 uM glycine), GAP vehicle (0.2 mM NaOH, pH 7.5), above-described additional test reagents, or combinations of GAP with additional test reagents or L-cystine esters alone, and incubated for additional 18 hours. For ROS detection, CellROX green (Life Tech, Thermo Fisher Scientific, Rockford, USA) reagent was added into each well to a final concentration of 15-25 uM and incubated for additional 2-4 hours at 37° C. in a humidified incubator. The ROS fluorescence was detected using a Tecan microplate reader (Excitation/Emission=490/525). Relative ROS production was calculated with normalization based on the vehicle control treatment which was set to 100%. Where indicated, percent protection was calculated as a comparison to menadione alone treatment, using the measured relative fluorescent units in the following equation: […]
ROS levels were evaluated together with cell viability because it is possible to get a false negative for ROS if treatment is so toxic, that at the time of assay, cells are dead (and there are no longer any detectable ROS). Decrease in ROS levels is meaningful if cells are still viable.

[5] = Table 1A, HR 20 uM where present, + menadione 25 uM

SMILES: CCCCCCc1ccc(O)cc1O [HR, 4-hexylresorcinol]
- % Protection (improvement vs vehicle control + menadione), cell viability ([1]; HR 10 uM + menadione): 18.85^3%
- Cell viability (% of control) ([1]; HR 10 uM + menadione): 65.1^3%
- % Protection (improvement vs vehicle control + menadione), cell viability ([1]; HR 20 uM + menadione): −79.00%
- Cell viability (% of control) ([1]; HR 20 uM + menadione): 11.0%
- Tyrosinase activity inhibition, Mean of % Inhibition ([2]; resorcinol (HR or ER) 5 uM): 63^1%
- Tyrosinase activity inhibition, Mean of % Inhibition ([2]; resorcinol (HR or ER) 10 uM): 71^1%
- % Protection (improvement vs. vehicle control + menadione) [3, 5]: 22^1%
- Glutathione Synthesis, Mean (uM glutathione) [3, 5]: 0.46^1 uM
- % Protection (improvement vs. vehicle control + menadione) ([3]; Table 2A, HR 10 uM + menadione): 4%
- Glutathione Synthesis, Mean (uM glutathione) ([3]; Table 2A, HR 10 uM + menadione): 0.24 µM
- % Protection (improvement vs. vehicle control + menadione) ([3]; Table 2A, HR 20 uM + menadione): 5%
- Glutathione Synthesis, Mean (uM glutathione) ([3]; Table 2A, HR 20 uM + menadione): 0.28 µM
- % Protection (improvement vs. vehicle control + menadione) ([3]; Table 2A, HR 40 uM + menadione): 1%
- Glutathione Synthesis, Mean (uM glutathione) ([3]; Table 2A, HR 40 uM + menadione): 0.19 µM
- % Protection (improvement vs. vehicle control + menadione) ([3]; Table 2A, HR 60 uM + menadione): 0%
- Glutathione Synthesis, Mean (uM glutathione) ([3]; Table 2A, HR 60 uM + menadione): 0.14 µM
- synergistic increase in GSH synthesis, combination with GAP amino acids vs either alone [3]: synergistic increase
- % protection (improvement vs vehicle control + menadione), ROS ([4]; Table 2D, HR 10 uM + menadione): 69.6^3%
- Mean ROS production (% of vehicle control) ([4]; Table 2D, HR 10 uM + menadione): 153.4^3%
- % protection (improvement vs vehicle control + menadione), ROS ([4]; Table 2D, HR 20 uM + menadione): 76.49^3%
- Mean ROS production (% of vehicle control) ([4]; Table 2D, HR 20 uM + menadione): 118.7^3%
- synergistic decrease in ROS production, combination with GAP amino acids vs either alone [4]: synergistic decrease

SMILES: CCc1ccc(O)cc1O [ER, 4-ethylresorcinol]
- Cell viability (% of vehicle of control) ([1]; ER 10 uM + menadione): 36.6%
- Cell viability (% of vehicle of control) ([1]; ER 20 uM + menadione): 39.8%
- inhibition at 5 µM ([2]; resorcinol (HR or ER) 5 uM): 67%
- inhibition at 10 µM ([2]; resorcinol (HR or ER) 10 uM): 68%
- % Protection (improvement vs. vehicle control + menadione) ([3]; Table 2C, ER 40 uM + menadione): 0%
- Glutathione Synthesis, Mean (uM glutathione) ([3]; Table 2C, ER 40 uM + menadione): 0.36 µM
- % Protection (improvement vs. vehicle control + menadione) ([3]; Table 2C, ER 50 uM + menadione): −4%
- Glutathione Synthesis, Mean (uM glutathione) ([3]; Table 2C, ER 50 uM + menadione): 0.25 µM
- % Protection (improvement vs. vehicle control + menadione) ([3]; Table 2C, ER 60 uM + menadione): −1%
- Glutathione Synthesis, Mean (uM glutathione) ([3]; Table 2C, ER 60 uM + menadione): 0.34 µM
- synergistic increase in GSH synthesis, combination with GAP amino acids vs either alone [3]: synergistic increase
- Mean ROS production (% of vehicle control) ([4]; Table 2H, ER 10 uM + menadione): 287.5%
- Mean ROS production (% of vehicle control) ([4]; Table 2H, ER 20 uM + menadione): 308.3%
- synergistic decrease in ROS production, combination with GAP amino acids vs either alone [4]: not observed
